Measurements reported in patent US6841684B2, “Imidiazoles having reduced side effects” (Allergan, Inc., priority 1997, dated 2005).

Biological target: T1, rat α2B (RNG gene) receptor (Rattus norvegicus, UniProt P19328)
T1 construct: expressed in transfected cells; host or cells: NIH-3T3 cells, calcium phosphate cotransfection
T1 sequence (P19328 1-453): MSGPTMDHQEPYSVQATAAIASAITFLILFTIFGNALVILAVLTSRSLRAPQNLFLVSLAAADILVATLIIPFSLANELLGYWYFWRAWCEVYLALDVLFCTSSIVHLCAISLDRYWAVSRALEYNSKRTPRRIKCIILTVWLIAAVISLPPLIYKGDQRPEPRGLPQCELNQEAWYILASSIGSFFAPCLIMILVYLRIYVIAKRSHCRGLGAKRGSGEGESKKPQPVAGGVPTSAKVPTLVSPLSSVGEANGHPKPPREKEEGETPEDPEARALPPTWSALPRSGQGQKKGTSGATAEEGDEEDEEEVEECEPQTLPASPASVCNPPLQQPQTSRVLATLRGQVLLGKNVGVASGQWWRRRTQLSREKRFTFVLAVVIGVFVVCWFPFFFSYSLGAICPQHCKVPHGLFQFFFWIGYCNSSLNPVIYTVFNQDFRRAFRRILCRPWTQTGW
Assay: RSAT (Receptor Selection and Amplification Technology) assay, alpha 2B
Type: cell-based
Settings: ratio of maximal effect to that of standard full agonist oxymetazoline
Source text: This preferential activity can be determined in a variety of functional assays such as Cyclic AMP Production, Shimizu et al, J. Neurochem. […] In the study below, the RSAT assay on cells that have been transiently transfected with the human α2A (c10 gene), rat α2B (RNG gene) and human α2C (c4 gene) receptors was used.
The assay measures a receptor-mediated loss of contact inhibition that results in selective proliferation of receptor-containing cells in a mixed population of confluent cells. The increase in cell number is assessed with an appropriate transfected marker gene such as b-galactosidase, the activity of which can be easily measured in a 96-well format. Receptors that activate the G protein, Gq, elicit this response. Alpha2 receptors, which normally couple to Gi, activate the RSAT response when coexpressed with a hybrid Gq protein that has a Gi receptor recognition domain, called Gq/i5^2.
NIH-3T3 cells are plated at a density of 2×10^6 cells in 15 cm dishes and maintained in Dulbecco's modified Eagle's medium supplemented with 10% calf serum. One day later, cells are cotransfected by calcium phosphate precipitation with mammalian expression plasmids encoding p-SV-b-galactosidase (5-10 mg), receptor (1-2 mg) and G protein (1-2 mg). 40 mg salmon sperm DNA may also be included in the transfection mixture. Fresh media is added on the following day and 1-2 days later, cells are harvested and frozen in 50 assay aliquots. Cells are thawed and 100 ml added to […] aliquots of various concentrations of drugs in triplicate in 96-well dishes. Incubations continue 72-96 hr at 37°. After washing with phosphate-buffered saline, b-galactosidase enzyme activity is determined by adding 200 ml of the chromogenic substrate (consisting of 3.5 mM o-nitrophenyl-b-D-galactopyranoside and 0.5% nonidet P-40 in phosphate buffered saline), incubating overnight at 30° and measuring optical density at 420 nm. The absorbence is a measure of enzyme activity, which depends on cell number and reflects a receptor-mediated cell proliferation. The EC50 and maximal effect of each drug at each alpha2 receptor is determined. The efficacy or intrinsic activity is calculated as a ratio of the maximal effect of the drug to the maximal effect of a standard full agonist for each receptor subtype.

| SMILES | Intrinsic Activity Relative to Oxymetazoline, Alpha 2B |
| --- | --- |
| C=CC1=CCC(Cc2c[nH]cn2)CC1 (stereo not drawn) [Example 1-A] | 0.7 |
| c1ccc2c(c1)SCCC2Cc1cnc[nH]1 (stereo not drawn) [Example 1-B] | 0.7 |
| c1ccc2c(c1)OCCC2Cc1cnc[nH]1 (stereo not drawn) [Example 1C] | 0.8 |
| CCC1=C(C)CCC(Cc2c[nH]cn2)C1 (stereo not drawn) [Example 1D] | 0.6 |
| COCC1=CCCC(Cc2c[nH]cn2)C1 (stereo not drawn) [Example 1E] | 1 |
| C1=C(Cc2c[nH]cn2)CSc2ccccc21 [Example 1F] | 0.8 |
| CC1=C(Cc2c[nH]cn2)COc2ccccc21 [Example 1G] | 0.6 |
| c1ccc2c(c1)CCCC2Cc1c[nH]cn1 (stereo not drawn) [Example 1H] | 0.6 |
| CC1=CCCCC1Cc1cnc[nH]1 (stereo not drawn) [Example 1I] | 0.8 |
| C1=C(Cc2c[nH]cn2)COc2ccccc21 [Example 1J] | 0.5 |
| C#CC1=CCC(Cc2c[nH]cn2)CC1 (stereo not drawn) [Example 1K] | 0.6 |
| C1=C(C2CC2)CCCC1Cc1c[nH]cn1 (stereo not drawn) [Example 1L] | 0.7 |
| CC1=CCCCC1Cc1c[nH]cn1 (stereo not drawn) [Example 1M] | 0.6 |
| CCC1=CCCCC1Cc1c[nH]cn1 (stereo not drawn) [Example 1N] | 0.7 |
| C#CC1=CC(Cc2c[nH]cn2)CCC1 (stereo not drawn) [Example 1O] | 0.8 |
| CCC1=CC(Cc2c[nH]cn2)CCC1 (stereo not drawn) [Example 1P] | 0.7 |
| CCC1=CC(Cc2c[nH]cn2)CC1 (stereo not drawn) [Example 1Q] | 0.75 |
| COc1ccc2c(c1)CC(Cc1c[nH]cn1)CC2.Cl (stereo not drawn) [Example B-1, 4(5)-(7-methoxy-1,2,3,4-tetrahydronaphthalen-2-ylmethyl)-1H-imidazole, hydrogen chloride salt] | 0.45 |
| COc1ccc2c(c1)C(=O)C(Cc1c[nH]cn1)CC2 (stereo not drawn) [Example B-1a, 2-(1H-imidazol-4(5)-ylmethyl)-7-methoxy-3,4-dihydro-2H-naphthalen-1-one] | 0.6 |
| O=C1/C(=C/c2c[nH]cn2)COc2ccccc21 [Example B-2a, 3-(1H-imidazol-4(5)-ylmethylene)chroman-4-one] | 0.63 |
| OC1c2ccccc2OCC1Cc1c[nH]cn1 (stereo not drawn) [Example B-2c, 3-(1H-imidazol-4(5)-ylmethyl)chroman-4-ol] | 0.65 |
| O=C1c2ccccc2CCC1Cc1c[nH]cn1 (stereo not drawn) [Example B-3a] | 0.8 |
| CC1CC(Cc2c[nH]cn2)Cc2ccccc21 (stereo not drawn) [Example B-4a, 4(5)-(4-methyl-1,2,3,4-tetrahydronaphthalen-2-ylmethyl)-1H-imidazole] | 0.75 |

| SMILES | Intrinsic Activity Relative to Oxymetazoline, Alpha 2B |
| --- | --- |
| CC1CC(Cc2c[nH]cn2)C(=O)c2ccccc21 (stereo not drawn) [Example B-4b, 2-(1H-imidazol-4(5)-ylmethyl)-4-methyl-3,4-dihydro-2H-naphthalen-1-one] | 0.7 |
| O=C1/C(=C/c2c[nH]cn2)CSc2ccccc21 [Example B-5a, 3-(1H-imidazol-4(5)-ylmethylene)thiochroman-4-one] | 0.5 |
| O=C1c2ccccc2SCC1Cc1c[nH]cn1 (stereo not drawn) [Example B-5b, 3-(1H-imidazol-4(5)-ylmethyl)thiochroman-4-one] | 0.5 |
| O=C1/C(=C/c2c[nH]cn2)Cc2ccccc21 [Example B-7a, 2-(1-H-imidazol-4(5)-ylmethylene)indan-1-one] | 0.3 |
| O=C1c2ccccc2CC1Cc1c[nH]cn1 (stereo not drawn) [Example B-7b, 2-(1H-imidazol-4(5)-ylmethyl)indan-1-one] | 0.3 |
| c1ccc2c(c1)CC(Cc1c[nH]cn1)C2 [Example B-7c, 4(5)-indan-2-ylmethyl-1H-imidazole] | 0.9 |
| Cc1ccc2c(c1)C(=O)C(Cc1c[nH]cn1)CC2 (stereo not drawn) [Example B-8a, 2-(1-H-imidazol-4(5)-ylmethyl)-7-methyl-3,4-dihydro-2H-naphthalen-1-one] | 0.4 |
| Cc1ccc2c(c1)CC(Cc1c[nH]cn1)CC2.Cl (stereo not drawn) [Example B-8b, 4(5)-(7-methyl-1,2,3,4-tetrahydronaphthalen-2-ylmethyl)-1H-imidazole, hydrogen chloride salt] | 0.6 |
| Cl.c1nc(CC2CCC3SCCC3C2)c[nH]1 (stereo not drawn) [Example B-9c, 5-(octahydrobenzo[b]thiophen-5-ylmethyl)-1H-imidazole, hydrochloride] | 0.3 |
| CC1(C)CC(Cc2c[nH]cn2)Cc2ccccc21 (stereo not drawn) [Example B-10, 4(5)-(4,4-dimethyl-1,2,3,4-tetrahydronaphthalen-2-ylmethyl)-1H-imidazole] | 0.3 |
| c1ccc2c(c1)CCCC(Cc1c[nH]cn1)C2 (stereo not drawn) [Example B-11a, 4(5)-(6,7,8,9-tetrahydro-5H-benzocyclohepten-6-ylmethyl)-1H-imidazole] | 0.9 |
| O=C1/C(=C/c2c[nH]cn2)CCCc2ccccc21 [Example B-11b, 6-(1H-imidazol-4(5)-ylmethylene)-6,7,8,9-tetrahydrobenzocyclohepten-5-one] | 0.3 |
| c1nc(Cc2ccoc2)c[nH]1 [Example C-6, 4(5)-furan-3-ylmethyl-1H-imidazole] | 0.67 |
| c1ccc2oc(Cc3c[nH]cn3)cc2c1 [Example C-10, 4(5)-benzofuran-2-ylmethyl-1H-imidazole] | 0.48 |
| CCc1ccc(Cc2c[nH]cn2)o1 [Example C-11, 4(5)-(5-ethylfuran-2-ylmethyl)-1H-imidazole] | 0.5 |
| Brc1csc(Cc2c[nH]cn2)c1 [Example C-12, 4(5)-(4-bromothiophen-2-ylmethyl)-1H-imidazole] | 1.3 |
| c1ccc(-c2csc(Cc3c[nH]cn3)c2)cc1 [Example C-13, 4(5)-(4-phenylthiophen-2-ylmethyl)-1H-imidazole] | 0.5 |
| Cc1csc(Cc2c[nH]cn2)c1.Cl [Example C-14, 4(5)-(4-methylthiophen-2-ylmethyl)-1H-imidazole, hydrochloride salt] | 0.7 |
| Cc1ccccc1C1C2CCC(C2)C1/N=C1/NCCO1 [Example D-2, oxazolidin-2-ylidene-(3-o-tolylbicyclo[2.2.1]hept-2-yl) amine] | 0.75 |
| C1CO/C(=N\C2CC3CCC2C3)N1 [Example D-3, bicyclo[2.2.1]hept-2-yl oxazolidin-2-ylidene amine] | 0.4 |
| c1nc(Cc2cc3c(s2)CCCC3)c[nH]1 [Example K-1, 4(5)-(4,5,6,7-tetrahydrobenzo[b]thiophen-2-ylmethyl)-1H-imidazole] | 0.53 |
| CC(C)(C)c1ccc(Cc2c[nH]cn2)o1 [Example K-2, 4(5)-(5-tert-butylfuran-2-ylmethyl)-1H-imidazole] | 0.7 |
